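Values below derive from 48-hour exposures of cells grown in 96-well plates, with endpoints linearly interpolated between the two concentrations bracketing the appropriate inhibition level. Here, GI50 denotes the concentration required for 50% inhibition of growth. The concentration for full growth arrest is given as TGI.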
Assays:
Test in all cases: DTP human tumour cell line panel, 48 h
[1] = test system: NCI/ADR-RES ovarian
[2] = test system: MOLT-4 leukemia
[3] = test system: SN12C renal
[4] = test system: T-47D breast
[5] = test system: SNB-19 CNS
[6] = test system: HCT-15 colon
[7] = test system: HOP-92 NSCLC
[8] = test system: HOP-62 NSCLC
[9] = test system: UACC-62 melanoma
[10] = test system: ACHN renal
[11] = test system: IGROV1 ovarian
[12] = test system: NCI-H23 lung
[13] = test system: U251 CNS
[14] = test system: TK-10 renal
[15] = test system: A549 NSCLC
[16] = test system: HCT-116 colon
[17] = test system: LOX IMVI melanoma
[18] = test system: SW-620 colon
[19] = test system: K-562 leukemia
[20] = test system: SF-539 CNS
[21] = test system: UACC-257 melanoma
[22] = test system: 786-0 renal
[23] = test system: DU-145 prostate
[24] = test system: KM12 colon
[25] = test system: RXF 393 renal
[26] = test system: SF-295 CNS
[27] = test system: A498 renal
[28] = test system: SK-MEL-28 melanoma
[29] = test system: HCC-2998 colon
[30] = test system: HL-60(TB) leukemia
[31] = test system: SK-OV-3 ovarian
[32] = test system: PC-3 prostate
[33] = test system: M14 melanoma
[34] = test system: HT29 colon
[35] = test system: OVCAR-8 ovarian
[36] = test system: SNB-75 CNS
[37] = test system: SK-MEL-5 melanoma
[38] = test system: COLO 205 colon
[39] = test system: HS 578T breast
[40] = test system: CCRF-CEM leukemia
[41] = test system: NCI-H226 lung
[42] = test system: UO-31 renal
[43] = test system: MALME-3M melanoma
[44] = test system: BT-549 breast
[45] = test system: RPMI-8226 leukemia
[46] = test system: MDA-MB-435
[47] = test system: NCI-H522 lung
[48] = test system: SF-268 CNS
[49] = test system: SK-MEL-2 melanoma
[50] = test system: MCF7 breast
[51] = test system: MDA-MB-231 breast
[52] = test system: CAKI-1 renal
[53] = test system: OVCAR-5 ovarian
[54] = test system: OVCAR-4 ovarian
[55] = test system: NCI-H460 lung
[56] = test system: OVCAR-3 ovarian
[57] = test system: EKVX NSCLC

## O=C(c1ccc(Cl)cc1)c1no[n+]([O-])c1C(=O)c1ccc(Cl)cc1
[1]
  GI50: 20.5 µM
  TGI: 49.8 µM
[2]
  GI50: 4.73 µM
  TGI: 22.1 µM
[3]
  GI50: 13 µM
  TGI: 28.3 µM
[4]
  GI50: 13.1 µM
  TGI: 43.1 µM
[5]
  GI50: 32.7 µM
  TGI: > 95.8 µM
[6]
  GI50: 12.6 µM
  TGI: 31 µM
[7]
  GI50: 1.77 µM
  TGI: 4.26 µM
[8]
  GI50: 28.5 µM
  TGI: > 74.7 µM
[9]
  GI50: 13.7 µM
  TGI: 27.3 µM
[10]
  GI50: 5.69 µM
  TGI: 17.9 µM
[11]
  GI50: 3.87 µM
  TGI: 10.3 µM
[12]
  GI50: 16.5 µM
  TGI: 40.9 µM
[13]
  GI50: 15.8 µM
  TGI: 30.2 µM
[14]
  GI50: 15 µM
  TGI: 28.3 µM
[15]
  GI50: 23.5 µM
  TGI: 62.1 µM
[16]
  GI50: 10.7 µM
  TGI: 27.4 µM
[17]
  GI50: 1.79 µM
  TGI: 3.59 µM
[18]
  GI50: 11.8 µM
  TGI: 25.1 µM
[19]
  GI50: 5.32 µM
  TGI: 31.8 µM
[20]
  GI50: 3.24 µM
  TGI: 8.17 µM
[21]
  GI50: 14.5 µM
  TGI: 27.8 µM
[22]
  GI50: 3.97 µM
  TGI: 13.7 µM
[23]
  GI50: 17 µM
  TGI: 31 µM
[24]
  GI50: 20.3 µM
  TGI: 45.6 µM
[25]
  GI50: 11.5 µM
  TGI: 23.8 µM
[26]
  GI50: 14.3 µM
  TGI: 29 µM
[27]
  GI50: 16.4 µM
  TGI: 36.4 µM
[28]
  GI50: 14.1 µM
  TGI: 27.8 µM
[29]
  GI50: 21 µM
  TGI: 44.8 µM
[30]
  GI50: 6.06 µM
  TGI: 20.7 µM
[31]
  GI50: 21 µM
  TGI: 42.9 µM
[32]
  GI50: 8.76 µM
  TGI: 22 µM
[33]
  GI50: 13.3 µM
  TGI: 27.2 µM
[34]
  GI50: 11.2 µM
  TGI: 26.4 µM
[35]
  GI50: 14.5 µM
  TGI: 33.8 µM
[36]
  GI50: 15 µM
  TGI: 29 µM
[37]
  GI50: 15.9 µM
  TGI: 30.5 µM
[38]
  GI50: 14.6 µM
  TGI: 34.3 µM
[39]
  GI50: 21.2 µM
  TGI: 68.2 µM
[40]
  GI50: 2 µM
  TGI: 4.75 µM
[41]
  GI50: 15.8 µM
  TGI: 31.1 µM
[42]
  GI50: 1.64 µM
  TGI: 3.2 µM
[43]
  GI50: 2.18 µM
  TGI: 4.2 µM
[44]
  GI50: 9.21 µM
  TGI: 22 µM
[45]
  GI50: 4.6 µM
  TGI: 24.4 µM
[46]
  GI50: 13.5 µM
  TGI: 26.8 µM
[47]
  GI50: 1.74 µM
  TGI: 3.37 µM
[48]
  GI50: 14.1 µM
  TGI: 33.2 µM
[49]
  GI50: 14.9 µM
  TGI: 28.7 µM
[50]
  GI50: 11.3 µM
  TGI: 31.7 µM
[51]
  GI50: 10.9 µM
  TGI: 26.8 µM
[52]
  GI50: 4.58 µM
  TGI: 12.2 µM
[53]
  GI50: 16.5 µM
  TGI: 35.3 µM
[54]
  GI50: 13.3 µM
  TGI: 27.5 µM
[55]
  GI50: 23.6 µM
  TGI: 63 µM
[56]
  GI50: 6.6 µM
  TGI: 14.5 µM

## C=C1C(=O)O[C@H]2[C@H]1CC/C(COC(=O)/C=C/C(=O)NCc1ccc(Cn3c(=O)sn(-c4ccccc4)c3=O)cc1)=C\CC[C@@]1(C)O[C@@H]21
[1]
  GI50: 47.8 µM
  TGI: > 100 µM
[2]
  GI50: 1.14 µM
  TGI: 5.2 µM
[3]
  GI50: 2.16 µM
  TGI: 5.95 µM
[4]
  GI50: 2.22 µM
  TGI: 7.21 µM
[5]
  GI50: 4.8 µM
  TGI: 19.4 µM
[6]
  GI50: 3.22 µM
  TGI: 13.6 µM
[7]
  GI50: 1.85 µM
  TGI: 3.55 µM
[8]
  GI50: 13.2 µM
  TGI: 27.1 µM
[9]
  GI50: 1.61 µM
  TGI: 3.26 µM
[10]
  GI50: 1.84 µM
  TGI: 3.78 µM
[11]
  GI50: 2.44 µM
  TGI: 7.24 µM
[13]
  GI50: 3.46 µM
  TGI: 12.1 µM
[14]
  GI50: 1.92 µM
  TGI: 3.85 µM
[15]
  GI50: 17.2 µM
  TGI: 37 µM
[16]
  GI50: 0.382 µM
  TGI: 1.44 µM
[19]
  GI50: 0.501 µM
  TGI: 18.4 µM
[20]
  GI50: 1.84 µM
  TGI: 3.45 µM
[21]
  GI50: 1.74 µM
  TGI: 4.07 µM
[22]
  GI50: 1.61 µM
  TGI: 3.33 µM
[23]
  GI50: 1.95 µM
  TGI: 4.07 µM
[24]
  GI50: 2.96 µM
  TGI: 11.6 µM
[25]
  GI50: 1.43 µM
  TGI: 2.83 µM
[26]
  GI50: 18.3 µM
  TGI: 32.7 µM
[27]
  GI50: 3.45 µM
  TGI: 9.55 µM
[28]
  GI50: 1.74 µM
  TGI: 3.28 µM
[29]
  GI50: 2.11 µM
  TGI: 4.46 µM
[30]
  GI50: 0.925 µM
  TGI: 5.3 µM
[31]
  GI50: 30.3 µM
  TGI: > 100 µM
[32]
  GI50: 2.84 µM
  TGI: 9.54 µM
[33]
  GI50: 1.86 µM
  TGI: 4.37 µM
[34]
  GI50: 1.86 µM
  TGI: 3.84 µM
[35]
  GI50: 2.32 µM
  TGI: 5.39 µM
[36]
  GI50: 3.41 µM
  TGI: 15.2 µM
[57]
  GI50: 4.82 µM
  TGI: 17.6 µM
[37]
  GI50: 2.36 µM
  TGI: 6.27 µM
[38]
  GI50: 1.74 µM
  TGI: 3.47 µM
[39]
  GI50: 3.95 µM
  TGI: 35.4 µM
[41]
  GI50: 14.6 µM
  TGI: 32.8 µM
[42]
  GI50: 2.19 µM
  TGI: 5.09 µM
[43]
  GI50: 0.933 µM
  TGI: 2.41 µM
[44]
  GI50: 1.55 µM
  TGI: 2.91 µM
[45]
  GI50: 1.21 µM
  TGI: 4.78 µM
[46]
  GI50: 1.73 µM
  TGI: 3.44 µM
[47]
  GI50: 0.406 µM
  TGI: 1.77 µM
[48]
  GI50: 2.67 µM
  TGI: 10.9 µM
[49]
  GI50: 2.22 µM
  TGI: 5.57 µM
[50]
  GI50: 1.75 µM
  TGI: 7.72 µM
[51]
  GI50: 2.02 µM
  TGI: 3.98 µM
[52]
  GI50: 11.7 µM
  TGI: 24.4 µM
[53]
  GI50: 2.69 µM
  TGI: 5.8 µM
[54]
  GI50: 2.69 µM
  TGI: 8.09 µM
[55]
  GI50: 5.28 µM
  TGI: 22.2 µM
[56]
  GI50: 0.519 µM
  TGI: 1.72 µM

Reference: PubChem BioAssay (NCI)
